The source of these data is US20070004735A1, “Method for inhibiting the replication of herpes viruses” (priority 2003, published 2007).

Data set [1] has as its system HCMV AD169 clone with mutation in UL86 A689T. Put plainly: Susceptibility (IC50) of resistant HCMV AD169 clone A689T. It counts as cell-based, Human cytomegalovirus. Conditions: Human betaherpesvirus 5, read-out: IC 50, A689T. Here is the method:
The test compounds are employed as 50 millimolar (mM) solutions in dimethyl sulfoxide (DMSO). Ganciclovir®, Foscarnet® and Cidofovir® are used as reference compounds. After addition of in each case 2 μl of the 50, 5, 0.5 and 0.05 mM DMSO stock solutions to 98 μl portions of cell culture medium in row 2 A-H for duplicate determinations, 1:2 dilutions are carried out with 50 μl portions of medium up to row 11 of the 96-well plate. The wells in rows 1 and 12 each contain 50 μl of medium. 150 μl of a suspension of 1×10^4 cells (human prepuce fibroblasts [NHDF]) are then pipetted into each of the wells (row 1=cell control) and, in rows 2-12, a mixture of HCMV-infected and uninfected NHDF cells (M.O.I.=0.001-0.002), i.e. 1-2 infected cells per 1000 uninfected cells. Row 12 (without substance) serves as virus control. The final test concentrations are 250-0.0005 μM. The plates are incubated at 37° C./5% CO2 for 6 days, i.e. until all the cells are infected in the virus controls (100% cytopathogenic effect [CPE]). The wells are then fixed and stained by adding a mixture of formalin and Giemsa's dye (30 minutes), washed with double-distilled water and dried in a drying oven at 50° C. The plates are then assessed visually using an overhead microscope (plaque multiplier from Technomara).
For this purpose, NHDF cells are seeded in tissue culture vessels. 5×10^3 cells per well are seeded in 96-well plates and infected with cell-free HCMV AD169 with an moi of 0.03. The infections are cultivated under substance pressure which corresponds to 10 times the IC50 of the substance. Preferably, 30-100 96-well plates inoculated as described are made up. […] Finally, viral stocks are produced as described above and frozen. Serial ten-fold dilution of the virus-infected cells or of the cell culture supernatant of the virus-infected cells is followed by determination of the titer on 24-well plates of confluent NHDF cells after vital staining with neutral red. Finally, the susceptibility to various substances (IC50 determination) is determined as described above.
The HCMVAD169 mutants selected as described above are grown in vitro on human embryonic prepuce fibroblasts (NHDF cells) under substance pressure (10×IC50 HCMVAD169). After infection of the NHDF cells with a multiplicity of infection (M.O.I) of 0.01, the virus-infected cells are harvested 5-10 days later, and the total DNA is isolated from these cells with the aid of established standard methods (e.g. phenol extraction and ethanol precipitation). Qiagen Sequencing Services (Qiagen, Hilden) determined, after amplification of the viral UL86 gene by PCR, the DNA sequence, which was then transcribed into protein sequence. Compared with the initial strain HCMV AD169, the differences shown in table 2 were detectable in the protein sequence of the major capsid protein (UL86) in the resistant viruses. The IC50 values [μM] of various substances on these mutants compared with the initial strain are likewise indicated. (n.d.=not measured). […] Depending on the nature of the substance, certain mutations lead to various extents of resistance.

For orientation: melting point means the temperature of the solid-liquid transition.

For `CCCCC(=O)Nc1ccc(NC(=O)Nc2ccc(F)c(Cl)c2)cc1` [Example 4, N-[4-({[(3-Chloro-4-fluorophenyl)amino]carbonyl}amino)phenyl]pentanamide], the IC50 in data set [1] was found to be 0.5 µM. On to `CC1(C)CC(=O)NN=C1c1cccc(NC(=O)Nc2ccc(F)cc2F)c1` [Example 1, N-(2,4-Difluorophenyl)-N′-[3-(4,4-dimethyl-6-oxo-1,4,5,6-tetrahydro-3-pyridazinyl)phenyl]urea], for which the melting point was determined as 213 °C. The IC50 in data set [1] was 6 µM.

Take `CC1(C)CC(=O)NN=C1c1cc(NC(=O)Nc2cc(F)ccc2F)ccc1O` [Example 2, N-(2,5-Difluorophenyl)-N′-[3-(4,4-dimethyl-6-oxo-1,4,5,6-tetrahydro-3-pyridazinyl)-4-hydroxyphenyl]urea]: the IC50 in data set [1] is 1 µM.
